Patent publication US20240118263A1, “TARGET FOR SCREENING ANTI-TUMOR DRUG, USE THEREOF AND SCREENING METHOD THEREFOR” (SHENYANG FUYANG PHARMACEUTICAL TECHNOLOGY CO., LTD., priority 2019, published 2024)
Entries after “also recorded” stand apart in the source; their conditions may differ.

Tests used:
[1] = Veterinary histopathology review of major organs and clinical chemistry; type: in vivo; details: 24 days after treatment
[2] = tested on: 786-O and RCC4 cells; assay: Annexin V apoptosis analysis, RCC cells; type: cell-based
Experimental: (§1) Cell viability was assessed similarly via CKK8 analysis. […] (FIG. 10C, D).
Cell apoptosis and cell cycle: Cells (2×10^5) were plated in 6-well plates and treated with different concentrations of ISP I. Then the cells were harvested and washed three times with PBS. Cells were resuspended in 100 μl binding buffer and were incubated with 5 μl APC-conjugated Annexin V working solution, a product of BD bioscience (Franklin Lakes, NJ USA), and 1 μl propidium iodide (PI), a product of Invitrogen, for 15 min at room temperature with protection from light. Data acquisition and quantification were processed with BD LSRFortessa flow cytometer, using FlowJo software (Ashland, OR USA).

[3] = tested on: 786-O and RCC4 cells; assay: Cell cycle analysis by flow cytometry, RCC cells; type: cell-based
Experimental: as §1
(§2) For monitoring cell-cycle arrest of ISP I-treated cells, Click-iT EdU Flow Cytometry Assay Kits were used, a product of ThermoFisher Scientific. Cells were co-cultured with EdU at a concentration of 10 μM for 1 hour. After fixation and permeabilization, EdU-positive cells were labeled with Alexa Fluor 647 fluorescein. DAPI also was used for measuring total DNA content to identify differences in cell cycle phases. Data were collected by means of a BD LSRFortessa flow cytometer using FlowJo software. Cells that are positive with EdU and DAPI were in S-Phase of the cell cycle.

[4] = tested on: B16 melanoma lung metastasis; assay: Metastatic murine melanoma (B16) lung metastasis model; type: in vivo, C57BL/6 mice; details: ISP I 35 mg/kg intraperitoneally daily, 12 days, vs saline
Experimental: In addition to the aforementioned xenograft tumor models, the anti-tumor activity of ISP I was assessed in a metastatic murine melanoma (B16) model. Mice were intravenously injected with 2×10^5 B16 cells and randomized into the following three treatment groups: ISP I (35 mg/kg), Carrimycin (56 mg/kg), Saline (control) (FIG. 13D).
For metastasis study, C57BL/6 mice (4-5 weeks) from Charles River Laboratories (Wilmington, MA USA) were assigned randomly to one or another of two groups, 9 animals per group. B16-F10 mouse skin melanoma cells (2×10^5) were resuspended in 100 μl saline and injected through tail vein. After treatment with ISP I at 35 mg/kg for 12 days, all mice were euthanized, and the lungs were examined for counting black metastasis dots.

[5] = tested on: human non-small cell lung cancer cells A549
Experimental: (§4) Experimental Materials Human non-small cell lung cancer cells A549, mouse breast cancer cells 4T-1 and mouse melanoma B16-BL6 were purchased from American Type Current Collection (ATCC, Rockville, MD, USA). An RPMI-1640 culture solution containing 10% of fetal calf serum and 2% of glutamine was inoculated with the A549, 4T-1 and B16-BL6 cells, and the cells were incubated at 37° C. in a 5% CO2 incubator.
(§5) The compounds were dissolved in DMSO under a sterile condition, and the obtained solutions were diluted to required concentrations by using an RPMI 1640 culture solution, wherein the final concentration of the DMSO was less than 0.5%.
MTT reduction method is used.
(§6) A549, 4T-1 and B16-BL6 were used as adherent cells, adherent tumor cells in a logarithmic phase were selected, digested with pancreatin, and then prepared into a cell suspension of 5×10^4/ml with a culture medium containing 10% of calf serum, a 96-well culture plate was inoculated with the cell suspension, wherein each well contained 100 μl of the cell suspension, and incubation was carried out for 24 h at 37° C. and 5% CO2. Replacing was carried out with a new culture solution containing the samples to be detected of different concentrations in the experimental groups, replacing was carried out with a culture solution containing a same volume of solvent in the control group, three parallel wells were set in each group, and incubation was carried out for 48 hours at 37° C. and 5% CO2. The supernate was discarded, careful washing was carried out with PBS twice, 100 μl of a freshly prepared culture medium containing 0.5 mg/ml of MTT was added into each well, and incubation was continued to be carried out at 37° C. for 4 h. The supernatant was carefully discarded, 150 μl of DMSO was added, uniform mixing was carried out for 10 min by using a micro oscillator, and the optical density value was measured at 492 nm by using a microplate reader.
(§7) Tumor cell growth inhibition ratio (%)=[A492 (negative control)−A492 (dosing group)]/A492 (negative control)×100%
(§8) The median inhibitory concentration (IC50) of the sample is calculated.

[6] = tested on: IOMM xenograft; assay: IOMM meningioma subcutaneous xenograft model; type: in vivo, Nude mice; details: 35 mg/kg intraperitoneally daily, vs control
Experimental: (§3) For subcutaneous xenografts, NSG mice (6-8 weeks old) from the NCI-Frederick animal facility and Jackson Lab (Bar Harbor, ME USA) were injected with 5×10^6 to 1×10^7 cells subcutaneously in the flank. One week later, the tumor-bearing mice were randomly assigned to different groups and made the tumor volume baseline equivalent and treated with normal saline or Zenomycin (35 mg/kg) everyday intraperitoneally. Tumors were measured using a caliper, and volume was calculated.

[7] = biological target: SELH protein degradation (Homo sapiens (Human), UniProt Q8IZQ5)
SELH protein degradation, sequence (Q8IZQ5 whole entry): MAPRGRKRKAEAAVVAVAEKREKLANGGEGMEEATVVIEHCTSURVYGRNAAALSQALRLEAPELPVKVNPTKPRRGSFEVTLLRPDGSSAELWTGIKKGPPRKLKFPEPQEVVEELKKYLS
Text: A cycloheximide (CHX) chase assay was completed to assess ISP I's effect on SELH protein degradation.

[8] = tested on: human non-small cell lung cancer cells A549; assay: MTT in-vitro anti-tumor activity test, A549; details: MTT
Experimental: as §4, §5
MTT reduction method is used.
as §6, §7, §8

[9] = tested on: LN229 and U251 cells; assay: Cell cycle analysis by flow cytometry (EdU and DAPI), glioblastoma cells; type: cell-based; details: LN229 and U251, compared with control cells
Experimental: as §2

[10] = tested on: LN229-luc intracranial tumor; assay: Intracranial LN229-luc glioblastoma xenograft mouse model; type: in vivo, NSG mice; details: ISP I 66 mg/kg intraperitoneally daily, vs control group
Text: The inventors first assessed ISP I's anti-tumor activity in an intracranial mouse model (FIG. 13A). NSG mice were inoculated with 1×10^5 LN229-luc cells in the right-frontal cortex. After 7 days, intracranial tumor growth was confirmed via noninvasive in vivo bioluminescence imaging and mice were randomized into ISP I or DMSO (control) treatment groups.
Mice experiments were approved by the National Institute of Neurological Disorders and Stroke (NINDS) and National Cancer Institute (NCI) Animal Use and Care Committees. For intracranial xenografts establishment, NOD-Prkde^scidIl2rg^tmiWjl (NSG) mice (6-8 weeks old from the NCI-Frederick animal facility) were inoculated intracranially with 100,000 LN229-luc cells suspended in 2 μL Hank's Balanced Salt Solution (HBSS), a product of Crystalgen (Commack, NY USA). After one week, luciferin signals were detected to confirm the survival of tumor cells in mice. The mice were assigned to the indicated groups according to the signal intensity, in order to keep the baseline balanced. ISP I was injected intraperitoneally daily at a dose of 66 mg/kg body weight for 24 days. The mice in control group were injected with the same volume of corn oil or saline. The viability of tumors was monitored every four days. […]

[11] = tested on: 786-O xenograft; assay: 786-O subcutaneous xenograft model; type: in vivo, NSG mice; details: 35 mg/kg intraperitoneally daily, vs control
Experimental: as §3

[12] = biological target: SELH (Homo sapiens (Human), UniProt Q8IZQ5); assay: Thermo-stability assay (CETSA) in LN229 and 786-O cell lines; type: binding; details: western blot, vs DMSO
SELH, sequence (Q8IZQ5 whole entry): as above
Text: Next, the inventors used a thermo-stability assay to confirm SELH was targeted by ISP I in LN229 and 786-O cell lines. The principle of the assay is based on altered protein thermal stabilization/destabilization due to ligand binding in living cells. […] (FIG. 11B and FIG. 12A). To verify further the specificity of ISP I's targeting of SELH, the inventors designed a surface plasmon resonance assay to assess the interaction of ISP I with SELH synthesized in bacteria.
CETSA experiments were performed to determine the ISP I-related ligand induced shifts. Intact and live cells in a 10-cm dish were harvested, washed and resuspended in PBS with protease inhibitor cocktail. Protein of the cells was extracted by freeze-thaw more than three times, using liquid nitrogen. The supernatant was centrifuged at 20,000 g for 20 min at 4° C. Then the samples were aliquoted to several groups incubated with different concentrations of ISP I for 1 hour. After that, samples were aliquoted into PCR tubes and thereafter heated at gradient temperature ranging from 40° C. to 80° C. for 3 min. Then the samples were centrifuged again and resolved using 4-12% SDS-PAGE followed by western blot experiments.

CO[C@@H]1[C@@H](O[C@@H]2O[C@H](C)[C@@H](O[C@H]3C[C@@](C)(O)[C@@H](OC(=O)CC(C)C)[C@H](C)O3)[C@H](N(C)C)[C@H]2O)[C@@H](CC=O)C[C@@H](C)[C@@H](O[C@H]2CC[C@H](N(C)C)[C@@H](C)O2)/C=C/C=C/C[C@@H](C)OC(=O)C[C@H]1O [Isovalerylspiramycin I, 4″-isovalerylspiramycin I]
toxicities in major organs and clinical chemistry [1]: no hematologic, renal, pancreatic or liver toxicities | apoptosis (Annexin V) [2]: dose-dependent apoptosis | cell-cycle arrest [3]: induced cell-cycle arrest in the G0/G1 phase | lung tumor nodules [4]: significantly reduced lung tumor nodules | A549 IC50 cytotoxicity [5]: 1.29 µg/mL | tumor size and weight, IOMM xenograft [6]: significantly reduced tumor size and weight | SELH protein half-life [7]: reduced the SELH protein half-life | inhibition effect on A549 cells (in words) [8]: significantly inhibited the human lung cancer A549 cells | cell distribution in cell cycle phases [9]: dose-dependent increase in the G0/G1 phase and a decrease in the S phase | tumor growth by bioluminescence imaging [10]: significantly reduced tumor growth; also recorded: complete response | tumor size and weight, 786-O xenograft [11]: significantly reduced tumor size and weight | thermal protection of SELH [12]: protective effect of ISP I on SELH was present over a range of increasing temperatures
